Reference: patent US20110107445A1, “Efficient Insertion of DNA Into Embryonic Stem Cells” (ITI Scotland Limited, priority 2008, published 2011)

What was measured:
[1] = tested on: CYP3A4; experiment: In vitro DBF oxidation by mouse liver and intestinal microsomes; format: in vitro ADME
Experimental: The total reaction volume was 1 mL. Fluorescein fluorescence was recorded using an F-4500 fluorescence spectrophotometer (Hitachi), excitation 485 nm and emission 538 nm. Fluorescein standard (10 μL, 25 μM) was injected into the reaction cuvette approximately 150 sec after the addition of NADPH. Slopes of the time course of the product accumulation were calculated using FL-Solution 2.0 (Hitachi).

[2] = tested on: CYP3A4; format: in vitro ADME, mouse
Excerpt: FIG. 24. 7-BQ oxidation by liver (A) and intestinal (B) microsomes from C57BL/6J, hCYP3A4/3A7_Cyp3a KO, hCYP3A4_Cyp3a KO and Cyp3a KO mice Data generated according to CXR approved Laboratory Method Sheet Fluor-0005. Apart from bars for untreated transgenic/knock-out mice, which represent a single measurement, data are mean±SD (n=3 for C57BL/6J microsomes; n=2 for microsomes from PCN treated transgenic strains and human liver microsomes (HLM)). Activities of samples from treated hCYP3A4/3A7_Cyp3a KO and hCYP3A4_Cyp3a KO mice were compared to that from Cyp3a KO line with an unpaired t test (two tailed P values). 3 homozygous male mice per strain were used throughout. Two mice were administered with 5-Pregnen-3β-ol-20-one-16α-carbonitrile (PCN) (100 mg/kg/2 daily doses/IP) and one mouse was given the vehicle (corn oil). […] Wild type (WT) and Cyp3a KO animals were included as controls (n=3 for WT, pooled; n=1-2 for Cyp3a KO). Animals were sacrificed 24 hrs post final dose. Liver and duodenal microsomes were analysed for CYP3A4 expression and catalytic activity.

[3] = Plasma clinical chemistry of PCN treated mice; format: in vivo, mouse; conditions: PCN treated hCYP3A4_Cyp3a KO mice compared to treated C57BL/6J mice
Experimental: (§1) The mice received either corn oil (vehicle) or PCN 100 mg/kg, daily, for 2 days by intraperitoneal (IP) injection according to the experimental design described in Table 3. Dosing solutions were prepared at CXR Biosciences on the day of dosing by adding the vehicle (corn oil) to the requisite quantity of the PCN. The concentration of PCN was the concentration of supplied chemical, without any correction for purity. Excess dosing solution was stored at approximately 2-8° C. for possible future analysis. The volume of dosing solution was 10 mL/kg bodyweight. Approximately 24 h after the second dose, the mice were euthanized using a rising concentration of CO2. Blood was collected at termination by cardiac puncture into lithium/heparin coacted tubes for plasma preparation.
Plasma samples were produced by removing red blood cells by centrifugation (2,000-3,000 rpm for 10 min at 8-10° C.). The supernatant (plasma) was stored on ice prior to clinical chemistry analysis. The pellet was discarded. Plasma samples from all animals were analysed for triglycerides, alanine aminotransferase, alkaline phosphatase, aspartate aminotransferase, albumin, cholesterol, bilirubin (total and direct), high and low density lipoproteins using the COBAS Integra 400+ (Roche), and the results are shown in FIGS. 19-21. […]

[4] = tested on: CYP3A7 mRNA; conditions: mouse, in vivo
Experimental: 3 homozygous male mice per strain were used throughout. Two mice were administered with 5-Pregnen-3β-ol-20-one-16α-carbonitrile (PCN) (100 mg/kg/2 daily doses/IP) and one mouse was given the vehicle (corn oil). […] Wild type (WT) and Cyp3a KO animals were included as controls (n=3 for WT, pooled; n=1-2 for Cyp3a KO). Animals were sacrificed 24 hrs post final dose. Liver and duodenal microsomes were analysed for CYP3A4 expression and catalytic activity.
The mice received either corn oil (vehicle) or PCN 100 mg/kg, daily, for 2 days by intraperitoneal (IP) injection according to the experimental design described in Table 3. Dosing solutions were prepared at CXR Biosciences on the day of dosing by adding the vehicle (corn oil) to the requisite quantity of the PCN. The concentration of PCN was the concentration of supplied chemical, without any correction for purity. Excess dosing solution was stored at approximately 2-8° C. for possible future analysis. The volume of dosing solution was 10 mL/kg bodyweight. […]
For each target gene a reaction with the lowest dCt value was identified and that dCt value was subtracted from all other dCt, giving so-called ddCt (ddCt of the sample with the lowest dCt (endogenous reference) equals 0). Finally, the normalised relative amount of target gene (RQ) was calculated using the following formula: RQ=(2̂(−ddCt))*100 as shown in Table 9.

[5] = Body and liver weights of PCN treated mice; format: in vivo, mouse; conditions: for Liver per body weight, percentage of C57BL/6J from the same treatment group / Liver per body weight, percentage of control group of the same strain / Body weight / Liver per body weight / Liver weight: PCN 100 mg/kg daily for 2 days IP; for Body weight / Liver per body weight / Liver weight: mean ± SD
Experimental: as §1
The body weight of each mouse was recorded at the start of the study and immediately prior to termination. Bodyweights were recorded electronically or manually and records of these weights were stored in the study file.
In order to weigh the liver, the gall bladder was removed, and then the liver was removed and weighed. Two samples of liver (approximately 5 mm^3) were immediately flash frozen in a cryovial in liquid nitrogen then stored at approximately −70° C. for RNA analysis. The remaining liver was weighed and immediately used for subcellular fractionation to homogenates and microsomes.

[6] = tested on: CYP3A4; experiment: Western blot of liver and intestinal microsomes for CYP3A4 protein; format: in vivo, mouse
Experimental: as §1
The duodenum (first 10 cm from the base of the stomach) was removed and flushed with ice cold PBS containing a protease inhibitor cocktail (Roche). The first 2 cm was but and placed into a 2 ml cryvial containing 1 ml of TRIZOL (Sigma), flash frozen immediately, and then stored at approximately −70° C. for Taqman® analysis. The remainder of the duodenum was placed in a 1 ml cryovial and flash frozen immediately, and then stored at approximately −70°.
Liver microsomes were produced by preparing subcellular fractions from fresh livers. The livers were processed as described above to homogenates and microsomes. Aliquots from liver samples were stored at approximately −70° prior to analysis.
Frozen small intestines were homogenised in SET with protease cocktail inhibitor (Roche) and PMSF (mM) using a Polytron homogeniser. The homogenates were subjected to subcellular fractionation as described above. The microsomal fractions were stored at approximately −70° prior to analysis.
Liver microsomes from C57BL/6J, hCYP3A4/3A7_Cyp3a KO, hCYP3A4_Cyp3a KO and Cyp3a KO mice were analysed by Western blotting using an antibody specific to CYP3A4 and the results are shown in FIG. 22. There was a clear protein band for CYP3A4 on the Western blot of liver and intestinal microsomes from vehicle treated hCYP3A4/3A7_Cyp3a KO mice. […]

[7] = molecular target: T1, CYP3A4 (Homo sapiens, UniProt P08684); experiment: In vitro oxidation of 7-BQ by pooled human liver microsomes; format: in vitro ADME
T1 construct: tissue Gentest 452172; host or cells: pooled (male) human liver microsomes
T1 sequence (P08684 whole entry): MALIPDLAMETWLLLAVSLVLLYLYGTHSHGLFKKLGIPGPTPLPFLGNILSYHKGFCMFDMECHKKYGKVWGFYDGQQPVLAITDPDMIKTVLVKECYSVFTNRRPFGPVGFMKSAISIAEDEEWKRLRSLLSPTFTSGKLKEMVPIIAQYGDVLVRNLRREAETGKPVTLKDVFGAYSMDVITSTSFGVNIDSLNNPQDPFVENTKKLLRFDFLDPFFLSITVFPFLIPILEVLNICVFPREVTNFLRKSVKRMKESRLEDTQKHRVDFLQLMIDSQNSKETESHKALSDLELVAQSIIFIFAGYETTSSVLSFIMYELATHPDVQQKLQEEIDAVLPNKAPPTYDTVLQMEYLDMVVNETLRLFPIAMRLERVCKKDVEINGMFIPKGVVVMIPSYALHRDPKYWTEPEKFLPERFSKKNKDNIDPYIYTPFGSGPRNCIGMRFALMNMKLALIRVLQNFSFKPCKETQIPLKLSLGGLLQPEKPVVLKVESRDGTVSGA
Excerpt: FIG. 24. 7-BQ oxidation by liver (A) and intestinal (B) microsomes from C57BL/6J, hCYP3A4/3A7_Cyp3a KO, hCYP3A4_Cyp3a KO and Cyp3a KO mice Data generated according to CXR approved Laboratory Method Sheet Fluor-0005. Apart from bars for untreated transgenic/knock-out mice, which represent a single measurement, data are mean±SD (n=3 for C57BL/6J microsomes; n=2 for microsomes from PCN treated transgenic strains and human liver microsomes (HLM)). Activities of samples from treated hCYP3A4/3A7_Cyp3a KO and hCYP3A4_Cyp3a KO mice were compared to that from Cyp3a KO line with an unpaired t test (two tailed P values).

## O=C(OCc1ccccc1)c1ccccc1-c1c2ccc(=O)cc-2oc2cc(OCc3ccccc3)ccc12 [DBF]
[1]; hCYP3A4/3A7_Cyp3a KO microsomes compared to hCYP3A4_Cyp3a KO
  DBF oxidation reaction rate: higher
[1]; liver and intestinal samples from untreated humanised mice compared to Cyp3a KO
  DBF oxidation activity: little increase
[1]; samples from the PCN treated groups
  DBF oxidation activity, difference humanised vs Cyp3a KO: significantly more pronounced

## CC(=O)[C@H]1[C@H](C#N)C[C@H]2[C@@H]3CC=C4C[C@@H](O)CC[C@]4(C)[C@H]3CC[C@@]21C [PCN, 5-Pregnen-3β-ol-20-one-16α-carbonitrile]
[2]
  7-BQ oxidation activity in response to PCN: no increase in activity
[3]
  plasma level of cholesterol, low and high density lipoproteins, alanine transferase and alkaline phosphatase: statistically significant increases
[4]
  CYP3A7 mRNA (Q-PCR): possible induction of CYP3A7
[5]; C57BL/6J mice
  Liver per body weight, percentage of C57BL/6J from the same treatment group: 100 ± 2.1 %
  Liver per body weight, percentage of control group of the same strain: 131 ± 2.7 %
[5]; C57BL/6J mice, n=3
  Body weight: 19.30 ± 0.82 g
  Liver per body weight: 5.70 ± 0.12 %
  Liver weight: 1.10 ± 0.06 g
[5]; C57BL/6J mice, PCN administration vs control
  liver/body weight ratio: significantly (P<0.001) increased
[5]; Cyp3a KO mice
  Liver per body weight, percentage of C57BL/6J from the same treatment group: 89 ± 4.4 %
  Liver per body weight, percentage of control group of the same strain: 121 ± 6.0 %
[5]; Cyp3a KO mice, n=2
  Body weight: 24.05 ± 1.77 g
  Liver per body weight: 5.06 ± 0.25 %
  Liver weight: 1.22 ± 0.15 g
[5]; all treated transgenic mice vs treated wild type, significant (P<0.05) only in Cyp3a KO group
  liver/body weight ratio: decreased liver/body weight ratio compared to the treated wild type
[5]; hCYP3A4/3A7_Cyp3a KO mice
  Liver per body weight, percentage of C57BL/6J from the same treatment group: 97 ± 21.1 %
  Liver per body weight, percentage of control group of the same strain: 120 ± 26.1 %
[5]; hCYP3A4/3A7_Cyp3a KO mice, n=2
  Body weight: 19.15 ± 0.64 g
  Liver per body weight: 5.53 ± 1.20%
  Liver weight: 1.06 ± 0.27 g
[5]; hCYP3A4_Cyp3a KO mice
  Liver per body weight, percentage of C57BL/6J from the same treatment group: 93 ± 4.6 %
  Liver per body weight, percentage of control group of the same strain: 113 ± 5.6 %
[5]; hCYP3A4_Cyp3a KO mice, n=2
  Body weight: 19.00 ± 0.71 g
  Liver per body weight: 5.27 ± 0.26%
  Liver weight: 1.00 ± 0.09 g
[6]; both humanised lines, treatment with PCN
  hepatic and intestinal CYP3A4 expression: strong induction
[6]; intestinal microsomes, humanised mice, compared with liver upregulation
  intestinal CYP3A4 protein upregulation (Western blot): less pronounced
[6]; liver microsomes, humanised mice, PCN 100 mg/kg/2 days/IP
  liver CYP3A4 protein (Western blot): strong upregulation

## c1ccc(COc2ccc3cccnc3c2)cc1 [7-BQ, 7-benzyloxyquinoline]
[7]
  7-BQ oxidation reaction rate: low reaction rate
[2]
  7-BQ oxidation: marked decrease
  7-BQ oxidation, recovery of activity: small and not statistically significant
